Several values for one entry are separate records, joined by “and”; a condition that tells them apart may be missing. Equal values may be shown once.

Common to all, as to type: cell-based
One series has as its system STAT3. The experiment in a line: STAT3 activity in HeLa-STAT3-luc cells stimulated with IFN-γ (luciferase). On the procedure: HeLa-STAT3-luc cells were stably transfected with the plasmid 4xM67 pTATA TK-Luc. Cells (20×10^3 cells/ml) were seeded 96-well plate the day before the assay. Then the cells were treated with the test substances for 15 min and then stimulated with IFN-γ 25 IU/ml. After 6 h, the cells were washed twice with PBS and lysed in 50 μl lysis buffer containing 25 mM Tris-phosphate (pH 7.8), 8 mM MgCl2, 1 mM DTT, 1% Triton X-100, and 7% glycerol during 15 min at RT in a horizontal shaker. Luciferase activity was measured using GloMax 96 microplate luminometer (Promega) following the instructions of the luciferase assay kit (Promega, Madison, Wis., USA). […] The experiments for each concentration of the test items were done in triplicate wells.

The test system of another series is NF-κB. The experiment in a line: NF-κB activity in NIH3T3-KBF-Luc cells stimulated with TNFα (luciferase). Conditions: for % Activation: TNFα alone = 100. How it is done: NIH3T3-KBF-Luc cells were stably transfected with the KBF-Luc plasmid (Sancho (2003) Mol Pharmacol 63:429-438), which contains three copies of NF-κB binding site (from major histocompatibility complex promoter), fused to a minimal simian virus 40 promoter driving the luciferase gene. Cells (1×10^4 for NIH3T3-KBF-Luc) were seeded the day before the assay on 96-well plate. Then the cells were treated with the test substances for 15 min and then stimulated with 30 ng/ml of TNFα. After 6 h, the cells were washed twice with PBS and lysed in 50 μl lysis buffer containing 25 mM Tris-phosphate (pH 7.8), 8 mM MgCl2, 1 mM DTT, 1% Triton X-100, and 7% glycerol during 15 min at RT in a horizontal shaker. Luciferase activity was measured using a GloMax 96 microplate luminometer (Promega) following the instructions of the luciferase assay kit (Promega, Madison, Wis., USA). […] The experiments for each concentration of the test items were done in triplicate wells.

In series [1] the test system is normal human epidermal keratinocytes (NHEK). Description: Cytotoxicity on NHEK monolayer cultures (MTT reduction assay and morphological observation). The settings on record: for Viability (%): single values. On the procedure:
To determine the cytotoxicity of flavonoid-5-O-α-L-rhamnosides tests were performed versus their aglycon derivatives in cell monolayer cultures. For this purpose concentrations ranging from 1 μM to 250 μM were chosen. The viability of normal human epidermal keratinocytes (NHEK) was twice evaluated by a MTT reduction assay and morphological observation with a microscope. NHEK were grown at 37° C. and 5% CO2 aeration in Keratinocyte-SFM medium supplemented with epidermal growth factor (EGF) at 0.25 ng/mL, pituitary extract (PE) at 25 μg/mL and gentamycin (25 μg/mL) for 24 h and were used at the 3rd passage. For cytotoxicity testing, pre-incubated NHEK were given fresh culture medium containing a specific concentration of test compound and incubated for 24 h. After a medium change at same test concentration cells were incubated a further 24 h until viability was determined. Test results are given in Table B2 and illustrated in FIG. 10.
(Tetrazolium dyes change colour on reduction, which living cells bring about.)

The subject of another series is HaCaT cells. Description: Glucose uptake (2-NBDG) in HaCaT keratinocytes. Also on record: key to Measure 1 / Measure 2 / Measure 3 / Mean: total green object integrated intensity, GCU×μm2×Well. Conditions: +2NBDG 50 μM, 24 h; for Measure 1 / Measure 2 / Measure 3: HaCaT cells, fluorescence; for RFU specific: mean minus control; for Mean: mean of triplicate measurements; for % Glucose uptake: Rosiglitazone 80 μM = 100%. How it is done: HaCaT cells (5×10^4) were seeded in 96-well black plates and incubated for 24 h. Then, medium was removed and the cells cultivated in OptiMEM, labeled with 50 μM 2-NBDG (2-[N-(7-nitrobenz-2-oxa-1,3-diazol-4-yl) amino]-2-deoxy-D-glucose and treated with the test substances or the positive control, Rosiglitazone, for 24 h. Medium was removed and the wells were carefully washed with PBS and incubated in PBS (100l/well). Finally the fluorescence was measured using the Incucyte FLR software, the data were analyzed by the total green object integrated intensity (GCU×μm2×Well) of the imaging system IncuCyte HD (Essen BioScience). The fluorescence of Rosiglitazone is taken as 100% of glucose uptake, and the glucose uptake was calculated as (% Glucose uptake)=100(T−B)/(R−B), where T (treated) is the fluorescence of test substance-treated cells, B (Basal) is the fluorescence of 2-NBDG cells and […] is the fluorescence of cells treated with Rosiglitazone.

Where [2] appears, read: 25 μM + IFNγ 25 U/ml, IFNγ alone = 100.
[3] abbreviates: 50 μM + IFNγ 25 U/ml, IFNγ alone = 100.

Regarding `COc1ccc(-c2coc3cc(O[C@@H]4OC(C)[C@H](O)C(O)C4O)cc(O[C@@H]4OC(C)[C@H](O)C(O)C4O)c3c2=O)cc1` (stereo partly drawn) [BR1, Biochanin A-5,7-di-O-α-L-rhamnoside], the “RLU 1” value in the series with STAT3 (25 μM + IFNγ 25 U/ml) is given as 8162 RLU; in the series with STAT3 (50 μM + IFNγ 25 U/ml), 12336 RLU; in the series with NF-κB (10 μM + 30 ng/ml TNFα) it was 259120 RLU; with NF-κB (25 μM + 30 ng/ml TNFα), 211660 RLU. Besides, the “RLU 2” value turned out to be 12819 RLU with STAT3 (25 μM + IFNγ 25 U/ml), 11620 RLU in the series on STAT3 (50 μM + IFNγ 25 U/ml), 247590 RLU in the series with NF-κB (10 μM + 30 ng/ml TNFα) and 208010 RLU with NF-κB (25 μM + 30 ng/ml TNFα). Also, the “RLU 3” value amounted to 11157 RLU in the series on STAT3 (25 μM + IFNγ 25 U/ml), 12104 RLU in the series with STAT3 (50 μM + IFNγ 25 U/ml), 229500 RLU in the series with NF-κB (10 μM + 30 ng/ml TNFα) and 203720 RLU in the series on NF-κB (25 μM + 30 ng/ml TNFα). Besides, the “RLU MEAN” value was 10713 RLU with STAT3 (25 μM + IFNγ 25 U/ml), 12020 RLU in the series with STAT3 (50 μM + IFNγ 25 U/ml), 245403 RLU in the series with NF-κB (10 μM + 30 ng/ml TNFα) and 207797 RLU in the series with NF-κB (25 μM + 30 ng/ml TNFα). In addition, the RLU specific in the series on STAT3 (25 μM + IFNγ 25 U/ml) is listed as 8878 RLU; in the series with STAT3 (50 μM + IFNγ 25 U/ml), 10185 RLU; in the series with NF-κB (10 μM + 30 ng/ml TNFα), 222040 RLU; in the series with NF-κB (25 μM + 30 ng/ml TNFα) it was 184433 RLU. Further, the “% Activation” value in the series on STAT3 (setting [2]) was 110.41%; with STAT3 (setting [3]), 126.67%; in the series on NF-κB (10 μM + 30 ng/ml TNFα), 170.3%; in the series on NF-κB (25 μM + 30 ng/ml TNFα) it was 141.4%.
Silibinin-5-O-α-L-rhamnoside [SR1]: in the series on STAT3 (25 μM + IFNγ 25 U/ml), the “RLU 1” value came out at 9507 RLU, the “RLU 2” value is 11653 RLU, the “RLU 3” value was 10203 RLU and the “RLU MEAN” value amounted to 10454 RLU. Further, the RLU specific in the series with STAT3 (25 μM + IFNγ 25 U/ml) worked out at 8447 RLU. Besides, in the series with STAT3 (setting [2]), the “% Activation” value stood at 92.24%. In addition, in the series on STAT3 (50 μM + IFNγ 25 U/ml), the “RLU 1” value was 10090 RLU, the “RLU 2” value worked out at 11355 RLU, the “RLU 3” value is on record as 10938 RLU and the “RLU MEAN” value turned out to be 10794 RLU. In addition, the RLU specific with STAT3 (50 μM + IFNγ 25 U/ml) was 8787 RLU. In the series with STAT3 (setting [3]), the “% Activation” value came to 95.95%. In addition, in the series on NF-κB (10 μM + 30 ng/ml TNFα), the “RLU 1” value is on record as 269710 RLU, the “RLU 2” value worked out at 262180 RLU, the “RLU 3” value was 254090 RLU and the “RLU MEAN” value turned out to be 261993 RLU. Further, in the series on NF-κB (10 μM + 30 ng/ml TNFα), the RLU specific is 229147 RLU and the “% Activation” value came to 154.8%. In the series with NF-κB (25 μM + 30 ng/ml TNFα), the “RLU 2” value was 171280 RLU, the “RLU 3” value is reported as 171730 RLU, the “RLU MEAN” value turned out to be 172650 RLU and the RLU specific is 139803 RLU. Also, the “% Activation” value in the series on NF-κB (25 μM + 30 ng/ml TNFα) worked out at 94.4%.
`COc1ccc(-c2cc(=O)c3c(O)cc(O)cc3o2)cc1O` [Diosmetin, 5,7-Trihydroxy-4′-methoxyflavone, reference compound]: in the series with STAT3 (50 μM test substance, +IFNγ 25 U/ml, IFNγ alone = 100% activation), the “% Activation” value was determined as 50.00%.
Take `O=C1CC(c2ccc(O)cc2)Oc2cc(O)cc(O)c21` (stereo not drawn) [Naringenin, 4′,5,7-Trihydroxyflavanone]: the “Viability (%) Mean” value is recorded as 95% in series [1] (1 μM); 93% in series [1] (2.5 μM); 92% in series [1] (5 μM); 95% in series [1] (10 μM); 92% in series [1] (25 μM); 89% in series [1] (50 μM). The “Viability (%) Mean” value is on record as 75% in series [1] (100 μM); 47% in series [1] (250 μM); “about 50%” in series [1] (250 μM, listed as naringenin). Also, the “Viability (%)” value in series [1] (1 μM) was 96% and 95%; in series [1] (2.5 μM), 95% and 92%; in series [1] (5 μM), 93% and 91%; in series [1] (10 μM), 95%; in series [1] (25 μM), 89% and 94%; in series [1] (50 μM), 85% and 94%. Besides, the “Viability (%)” value in series [1] (100 μM) is 76% and 74%; in series [1] (250 μM), 48% and 47%. The Morph. obs. entry was “+/−, *” in series [1] (100 μM) and “+/−, *” in series [1] (250 μM).
For Chrysin-5-O-α-L-rhamnoside [CR2], in the series on HaCaT cells (25 μM test substance), the “Measure 1” value amounted to 427937, the “Measure 2” value was 431593, the “Measure 3” value amounted to 390512 and the RFU specific was 410367 RFU. Moreover, in the series on HaCaT cells (25 μM test substance), the Mean stood at 416681 and the “% Glucose uptake” value was 47.2%. Besides, in the series with HaCaT cells (50 μM test substance), the “Measure 1” value stood at 771478, the “Measure 2” value stood at 1100390, the “Measure 3” value is given as 923151 and the RFU specific is listed as 925359 RFU. For the same molecule, in the series with HaCaT cells (50 μM test substance), the Mean is reported as 931673 and the “% Glucose uptake” value came to 106.5%. Further, in the series with NF-κB (10 μM + 30 ng/ml TNFα), the “RLU 1” value was 156600 RLU, the “RLU 2” value is given as 160140 RLU, the “RLU 3” value is 151070 RLU and the “RLU MEAN” value is reported as 155937 RLU. For the same molecule, in the series with NF-κB (10 μM + 30 ng/ml TNFα), the RLU specific stood at 132573 RLU and the “% Activation” value is listed as 101.7%. Moreover, in the series with NF-κB (25 μM + 30 ng/ml TNFα), the “RLU 1” value stood at 170390 RLU, the “RLU 2” value was found to be 179220 RLU, the “RLU 3” value stood at 163490 RLU and the “RLU MEAN” value is given as 171033 RLU. In addition, in the series with NF-κB (25 μM + 30 ng/ml TNFα), the RLU specific worked out at 147670 RLU and the “% Activation” value is given as 113.2%.
Regarding `COc1ccc(C2CC(=O)c3c(O)cc(O)cc3O2)cc1O` (stereo not drawn) [Hesperetin, 3′,5,7-Trihydroxy-4′-methoxyflavanone], the “Viability (%) Mean” value in series [1] (1 μM) is on record as 105%; in series [1] (2.5 μM), 103%; in series [1] (5 μM) it was 106%; in series [1] (10 μM), 103%; in series [1] (25 μM) it was 108%; in series [1] (50 μM), 106%. In addition, the “Viability (%) Mean” value in series [1] (100 μM) is recorded as 99%; in series [1] (250 μM), 57%; in series [1] (250 μM, listed as hesperetin) it was “about 50%”. For the same molecule, the “Viability (%)” value in series [1] (1 μM) was 103% and 106%; in series [1] (2.5 μM), 98% and 109%; in series [1] (5 μM), 107% and 106%; in series [1] (10 μM), 101% and 105%; in series [1] (25 μM), 106% and 109%; in series [1] (50 μM) it was 106%. In addition, the “Viability (%)” value in series [1] (100 μM) was 98% and 100%; in series [1] (250 μM), 54% and 59%.

For the origin of these results see patent US20190100549A1, “FLAVONOIDE-TYPE COMPOUNDS BEARING AN O-RHAMNOSYL RESIDUE” (Universitaet Hamburg, priority 2016, published 2019).
